Source: patent US20220323594A1, “LIPIDATED CATIONIC PEPTIDE-PEG COMPOSITIONS FOR NUCLEIC ACID DELIVERY” (NUTCRACKER THERAPEUTICS, INC., priority 2019, published 2022)

Tests used:
HeLa cells [1] = assay: In vitro expression of firefly luciferase (Fluc) after treatment with Fluc mRNA/amino lipidated peptoid formulations, no PEG or 2% DMG-PEG2000; format: cell-based
In short: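 Peptoid/Fluc mRNA particles (5:1 w/w), without PEG or with DMG-PEG2000 pre-mixed into peptoid at 2% w/w, dosed at 100 ng mRNA/well on HeLa cells. Luciferase luminescence (RLU) read after 6 h and 24 h.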

HeLa cells [2] = assay: In vitro Fluc expression with variable peptoid:mRNA mass ratio, 2% DMG-PEG2000; format: cell-based; conditions: 24 h; for Observed Luciferase Expression (RLU) for Given Formulation Mass Ratio 2:1: 2% (w/w) DMG-PEG2000, peptoid:mRNA 2:1; for Observed Luciferase Expression (RLU) for Given Formulation Mass Ratio 3.5:1: 2% (w/w) DMG-PEG2000, peptoid:mRNA 3.5:1; for Observed Luciferase Expression (RLU) for Given Formulation Mass Ratio 5:1: 2% (w/w) DMG-PEG2000, peptoid:mRNA 5:1; for Observed Luciferase Expression (RLU) for Given Formulation Mass Ratio 7.5:1: 2% (w/w) DMG-PEG2000, peptoid:mRNA 7.5:1
In short: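 Fluc mRNA particles formulated at 2:1, 3.5:1, 5:1 and 7.5:1 peptoid:mRNA (w/w), with DMG-PEG2000 at 2% (w/w) relative to amino lipidated peptoid. HeLa cells treated for 24 hours; Fluc expression read as bioluminescence (RLU).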

[3] = MTT viability assay after treatment with Fluc mRNA/amino lipidated peptoid formulations; format: cell-based; conditions: human, HeLa cells
In short: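 Formulations (peptoid:mRNA 5:1 mass ratio, 2% w/w DMG-PEG2000) were applied at 100 ng Fluc mRNA per well for 8 h, followed by 48 h of growth. Cells then received 1.5 mg/mL MTT for 2 h, and formazan signal was normalized to untreated cells.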

[4] = Dynamic light scattering (DLS) of mRNA/peptoid formulations: particle size and polydispersity; format: physicochemical; conditions: Fluc mRNA/peptoid formulation; for Size PDI: size polydispersity index by DLS, 5:1 mass ratio; for Size (nm): volume average particle size/diameter by DLS, 5:1 mass ratio peptoid:cargo
In short: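 Fluc mRNA was complexed with amino lipidated peptoids by pipetting at a 5:1 peptoid:cargo mass ratio, peptoid in ethanol and mRNA in PBS pH 5.5 (1:3 volume ratio). DLS gave volume-average diameter (nm) and polydispersity index.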

[5] = mRNA encapsulation by fluorescence of Qubit RNA HS dye before and after lysis with Triton X-100; format: physicochemical; conditions: percentage of mRNA encapsulation; Fluc mRNA/peptoid formulation, 5:1 mass ratio
In short: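 Peptoid/Fluc mRNA nanoparticles were formed by pipette mixing at a 5:1 peptoid:mRNA mass ratio. Percent encapsulation came from Qubit RNA HS dye fluorescence before versus after particle lysis with Triton X-100.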

[6] = no PEG, peptoid:Fluc mRNA 5:1 w/w, 100 ng/well, 6 h of treatment
[7] = no PEG, peptoid:Fluc mRNA 5:1 w/w, 100 ng/well, 24 h of treatment
[8] = with 2% (w/w) DMG-PEG2000, peptoid:mRNA 5:1, 6 h after treatment
[9] = with 2% (w/w) DMG-PEG2000, peptoid:mRNA 5:1, 24 h after treatment

SMILES	Luciferase Expression (RLU) 6 h (HeLa cells [1]; [6]) [RLU]	Luciferase Expression (RLU) 24 h (HeLa cells [1]; [7]) [RLU]	Luciferase Expression (RLU) 6 h (HeLa cells [1]; [8]) [RLU]	Luciferase Expression (RLU) 24 h (HeLa cells [1]; [9]) [RLU]	Observed Luciferase Expression (RLU) for Given Formulation Mass Ratio 2:1 (HeLa cells [2]) [RLU]	Observed Luciferase Expression (RLU) for Given Formulation Mass Ratio 3.5:1 (HeLa cells [2]) [RLU]	Observed Luciferase Expression (RLU) for Given Formulation Mass Ratio 5:1 (HeLa cells [2]) [RLU]	Observed Luciferase Expression (RLU) for Given Formulation Mass Ratio 7.5:1 (HeLa cells [2]) [RLU]	viability at 8 h, 500 ng/well ([3]; Relative Viability (%) 2% PEG) [%]	viability at 8 h, 500 ng/well ([3]; Relative Viability (%) No PEG) [%]	Size PDI [4]	Size (nm) [4] [nm]	% Encapsulation [5] [%]
CCCCCCCCCCN(CC(N)=O)C(=O)CN(CCCCCCCCCC)C(=O)CN(CCCCCCCCCC)C(=O)CN(CCCCCCCCCC)C(=O)CN(CCCCCCCCCC)C(=O)CN(CCCCCCCCCC)C(=O)CN(CCc1ccccc1)C(=O)CN(CCc1ccccc1)C(=O)CN(CCN)C(=O)CN(CCc1ccccc1)C(=O)CN(CCc1ccccc1)C(=O)CN(CCN)C(=O)CN(CCc1ccccc1)C(=O)CN(CCc1ccccc1)C(=O)CNCCN [Compound 22]	6.63E+01	6.77E+01	9.23E+01	2.13E+01	3.53E+01	8.83E+01	2.50E+02	5.80E+02	118	104	0.538	748.2	65.4
CCCCCCCCCCN(CC(N)=O)C(=O)CN(CCCCCCCCCC)C(=O)CN(CCCCCCCCCC)C(=O)CN(CCCCCCCCCC)C(=O)CN(CCc1ccccc1)C(=O)CN(CCc1ccccc1)C(=O)CN(CCNC)C(=O)CN(CCc1ccccc1)C(=O)CN(CCc1ccccc1)C(=O)CN(CCNC)C(=O)CN(CCc1ccccc1)C(=O)CN(CCc1ccccc1)C(=O)CNCCNC [Compound 25]	3.93E+02	2.07E+03	1.81E+03	7.30E+02	3.86E+02	8.41E+03	5.03E+03	5.66E+03	85.9	77.9	0.021	773.3	8.4
CCCCCCCCCCN(CC(N)=O)C(=O)CN(CCCCCCCCCC)C(=O)CN(CCc1ccccc1)C(=O)CN(CCc1ccccc1)C(=O)CN(CCNC)C(=O)CN(CCc1ccccc1)C(=O)CN(CCc1ccccc1)C(=O)CN(CCNC)C(=O)CN(CCc1ccccc1)C(=O)CN(CCc1ccccc1)C(=O)CNCCNC [Compound 27]	9.88E+02	7.40E+02	3.13E+02	6.36E+02	6.27E+03	8.40E+02	8.69E+02	6.41E+02	91.1	93.9	0.606	438.7	50.9
CCCCCCCCCCN(CC(N)=O)C(=O)CN(CCCCCCCCCC)C(=O)CN(CCc1ccccc1)C(=O)CN(CCc1ccccc1)C(=O)CN(CCCN)C(=O)CN(CCc1ccccc1)C(=O)CN(CCc1ccccc1)C(=O)CN(CCCN)C(=O)CN(CCc1ccccc1)C(=O)CN(CCc1ccccc1)C(=O)CNCCCN [Compound 30]	2.79E+03	1.29E+04	1.79E+03	1.52E+03	4.27E+04	3.43E+03	3.46E+03	1.47E+03	88	86.5	0.455	282.8	8.4
CCCCCCCCCCN(CC(N)=O)C(=O)CN(CCCCCCCCCC)C(=O)CN(CCCCCCCCCC)C(=O)CN(CCCCCCCCCC)C(=O)CN(CCc1ccccc1)C(=O)CN(CCc1ccccc1)C(=O)CN(CC1CCNCC1)C(=O)CN(CCc1ccccc1)C(=O)CN(CCc1ccccc1)C(=O)CN(CC1CCNCC1)C(=O)CN(CCc1ccccc1)C(=O)CN(CCc1ccccc1)C(=O)CNCC1CCNCC1 [Compound 31]	5.84E+02	2.93E+03	4.30E+02	2.63E+02	2.07E+02	5.70E+02	3.77E+03	2.05E+03	98.4	83.8	0.404	348.5	35.7
CCCCCCCCCCN(CC(N)=O)C(=O)CN(CCCCCCCCCC)C(=O)CN(CCCCCCCCCC)C(=O)CN(CCCCCCCCCC)C(=O)CN(CCc1ccccc1)C(=O)CN(CCc1ccccc1)C(=O)CN(CC1CCNCC1)C(=O)CN(CCc1ccccc1)C(=O)CN(CCc1ccccc1)C(=O)CN(CC1CCNCC1)C(=O)CN(CCc1ccccc1)C(=O)CN(CCc1ccccc1)C(=O)CN(CC1CCNCC1)C(=O)CN(CCc1ccccc1)C(=O)CN(CCc1ccccc1)C(=O)CNCC1CCNCC1 [Compound 32]	4.25E+02	2.00E+03	4.82E+02	3.40E+02	1.82E+02	3.09E+02	3.77E+03	3.37E+03	102	90.7	0.274	247.5	50.9
CCCCCCCCCCN(CC(N)=O)C(=O)CN(CCCCCCCCCC)C(=O)CN(CCc1ccccc1)C(=O)CN(CCc1ccccc1)C(=O)CN(CC1CCNCC1)C(=O)CN(CCc1ccccc1)C(=O)CN(CCc1ccccc1)C(=O)CN(CC1CCNCC1)C(=O)CN(CCc1ccccc1)C(=O)CN(CCc1ccccc1)C(=O)CNCC1CCNCC1 [Compound 33]	4.61E+03	1.14E+04	4.64E+02	5.17E+02	1.76E+04	6.62E+02	7.46E+02	3.12E+02	98	99.4	0.048	435.7	82.0
